Reference: US11919901B2 (Syndax Pharmaceuticals, Inc., priority 2021, dated 2024)

Target: Menin-MLL (Homo sapiens (Human), UniProt O00255)
Assay: Determination of binding constants (Ki) to Menin-MLL (HTRF)
Details: HTRF, 0.25 nM H-FL-Menin, 3.2 nM FITC-MLL-4-43, 24 hr incubation; for Ki: read-out: Menin-MLL Ki HTRF Assay: Ki

Sequence of Menin-MLL (O00255 whole entry): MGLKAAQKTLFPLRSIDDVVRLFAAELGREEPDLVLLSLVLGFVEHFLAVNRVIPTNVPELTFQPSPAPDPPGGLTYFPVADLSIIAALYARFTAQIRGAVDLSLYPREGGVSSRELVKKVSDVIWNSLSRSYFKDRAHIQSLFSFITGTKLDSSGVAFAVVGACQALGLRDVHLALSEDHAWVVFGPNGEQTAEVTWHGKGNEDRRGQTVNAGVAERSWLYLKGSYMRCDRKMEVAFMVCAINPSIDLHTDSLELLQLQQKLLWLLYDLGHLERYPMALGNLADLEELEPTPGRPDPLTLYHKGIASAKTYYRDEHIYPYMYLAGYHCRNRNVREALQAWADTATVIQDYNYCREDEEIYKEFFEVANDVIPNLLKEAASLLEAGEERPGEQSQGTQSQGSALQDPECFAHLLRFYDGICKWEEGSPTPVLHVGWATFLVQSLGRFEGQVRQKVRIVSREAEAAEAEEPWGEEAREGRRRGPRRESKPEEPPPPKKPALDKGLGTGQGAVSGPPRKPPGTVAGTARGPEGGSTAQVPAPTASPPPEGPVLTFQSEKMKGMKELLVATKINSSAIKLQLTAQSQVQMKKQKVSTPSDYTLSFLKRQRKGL

SMILES	EC50	Ki
CC(C)N(C(=O)c1cc(F)ccc1Oc1cncnc1N1CC2(CCN(C[C@@H]3CC[C@@H](NS(=O)(=O)C(C)C)CO3)CC2)C1)[C@@H]1CCOC1 [Compound 132, 5-Fluoro-N-i sopropyl-2-((4-(7-(((2S,5R)-5-((1-methylethyl)sulfonamido)tetrahydro-2H-pyran-2-yl)methyl)-2,7-diazaspiro[3.5]nonan-2-yl)pyrimidin-5-yl)oxy)-N-((R)-tetrahydrofuran-3-yl)benzamide]	< 50 nM	< 1 nM
Cc1nc(S(=O)(=O)N[C@@H]2CC[C@@H](CN3CCC4(CC3)CN(c3ncncc3Oc3ccc(F)cc3C(=O)N(C(C)C)[C@@H]3CCOC3)C4)OC2)cs1 [Compound 133, 5-Fluoro-N-isopropyl-2-((4-(7-(((2S,5R)-5-((2-methylthiazole)-4-sulfonamido)tetrahydro-2H-pyran-2-yl)methyl)-2,7-diazaspiro[3.5]nonan-2-yl)pyrimidin-5-yl)oxy)-N-((R)-tetrahydrofuran-3-yl)benzamide]	–	< 1 nM
Cc1nc(S(=O)(=O)N[C@@H]2CC[C@@H](CN3CCC4(CC3)CN(c3ncncc3Oc3ccc(F)cc3C(=O)N(C(C)C)[C@H]3CCOC3)C4)OC2)cs1 [Compound 135, 5-Fluoro-N-isopropyl-2-((4-(7-(((2S,5R)-5-((2-methylthiazole)-4-sulfonamido)tetrahydro-2H-pyran-2-yl)methyl)-2,7-diazaspiro[3.5]nonan-2-yl)pyrimidin-5-yl)oxy)-N-((S)-tetrahydrofuran-3-yl)benzamide]	–	< 1 nM
CC(C)N(C)C(=O)c1cc(F)ccc1Oc1cncnc1N1CC2(CCN(C[C@@H]3CC[C@@H](NS(=O)(=O)N(C)C)CO3)CC2)C1 [Compound 137, 2-((4-(7-(((2S,5R)-5-((N,N-Dimethylsulfamoyl)amino)tetrahydro-2H-pyran-2-yl)methyl)-2,7-diazaspiro[3.5]nonan-2-yl)pyrimidin-5-yl)oxy)-5-fluoro-N-isopropyl-N-methylbenzamide]	–	< 1 nM
CC(C)N(C)C(=O)c1cc(F)ccc1Oc1cncnc1N1CC2(CCN(C[C@@H]3CC[C@@H](NS(=O)(=O)c4cnn(C)c4)CO3)CC2)C1 [Compound 139, 5-Fluoro-N-isopropyl-N-methyl-2-((4-(7-(((2S,5R)-5-((1-methyl-1H-pyrazole)-4-sulfonamido)tetrahydro-2H-pyran-2-yl)methyl)-2,7-diazaspiro[3.5]nonan-2-yl)pyrimidin-5-yl)oxy)benzamide]	–	< 1 nM
CCN(C(=O)c1cc(F)ccc1Oc1cncnc1N1CC2(CCN(C[C@@H]3CC[C@@H](NS(=O)(=O)N(C)CC)CO3)CC2)C1)C(C)C [Compound 140, N-Ethyl-2-((4-(7-(((2S,5R)-5-((N-ethyl-N-methylsulfamoyl)amino)tetrahydro-2H-pyran-2-yl)methyl)-2,7-diazaspiro[3.5]nonan-2-yl)pyrimidin-5-yl)oxy)-5-fluoro-N-isopropylbenzamide]	–	< 1 nM
CC(C)NS(=O)(=O)N[C@@H]1CC[C@@H](CN2CCC3(CC2)CN(c2ncncc2Oc2ccc(F)cc2C(=O)N(CC(F)F)C(C)C)C3)OC1 [Compound 150, N-(2,2-Difluoroethyl)-5-fluoro-N-isopropyl-2-((4-(7-(((2S,5R)-5-((N-isopropylsulfamoyl)amino)tetrahydro-2H-pyran-2-yl)methyl)-2,7-diazaspiro[3.5]nonan-2-yl)pyrimidin-5-yl)oxy)benzamide]	–	< 1 nM
CCCNS(=O)(=O)N[C@@H]1CC[C@@H](CN2CCC3(CC2)CN(c2ncncc2Oc2ccc(F)cc2C(=O)N(CC(F)F)C(C)C)C3)OC1 [Compound 151, N-(2,2-Difluoroethyl)-5-fluoro-N-isopropyl-2-((4-(7-(((2S,5R)-5-((N-propylsulfamoyl)amino)tetrahydro-2H-pyran-2-yl)methyl)-2,7-diazaspiro[3.5]nonan-2-yl)pyrimidin-5-yl)oxy)benzamide]	–	< 1 nM
CCS(=O)(=O)N[C@@H]1CC[C@@H](CN2CCC3(CC2)CN(c2ncncc2Oc2ccc(F)cc2C(=O)N(CC(F)(F)F)C(C)C)C3)OC1 [Compound 152, 2-((4-(7-(((2S,5R)-5-(Ethylsulfonamido)tetrahydro-2H-pyran-2-yl)methyl)-2,7-diazaspiro[3.5]nonan-2-yl)pyrimidin-5-yl)oxy)-5-fluoro-N-isopropyl-N-(2,2,2-trifluoroethyl)benzamide]	< 50 nM	< 1 nM
C[C@@H]1COC[C@@H](C)N1C(=O)c1cc(F)ccc1Oc1cncnc1N1CC2(CCN(C[C@@H]3CC[C@@H](NS(=O)(=O)NCC(F)(F)F)CO3)CC2)C1 [Compound 157, {[(3R,6S)-6-{[2-(5-{2-[(3R,5R)-3,5-Dimethylmorpholine-4-carbonyl]-4-fluorophenoxy}pyrimidin-4-yl)-2,7-diazaspiro[3.5]nonan-7-yl]methyl}oxan-3-yl]sulfamoyl}(2,2,2-trifluoroethyl)amine]	–	< 1 nM
C[C@@H]1COC[C@@H](C)N1C(=O)c1cc(F)ccc1Oc1cncnc1N1CC2(CCN(C[C@@H]3CC[C@@H](NS(=O)(=O)NC4CC4)CO3)CC2)C1 [Compound 159, N-[(3R,6S)-6-{[2-(5-{2-[(3R,5R)-3,5-Dimethylmorpholine-4-carbonyl]-4-fluorophenoxy}pyrimidin-4-yl)-2,7-diazaspiro[3.5]nonan-7-yl]methyl}oxan-3-yl](cyclopropylamino)sulfonamide]	–	< 1 nM
C[C@@H]1COC[C@H](C)N1C(=O)c1cc(F)ccc1Oc1cncnc1N1CC2(CCN(C[C@@H]3CC[C@@H](NS(=O)(=O)N(C)C)CO3)CC2)C1 [Compound 160, {[(3R,6S)-6-{[2-(5-{2-[(3R,5S)-3,5-Dimethylmorpholine-4-carbonyl]-4-fluorophenoxy}pyrimidin-4-yl)-2,7-diazaspiro[3.5]nonan-7-yl]methyl}oxan-3-yl]sulfamoyl}dimethylamine]	–	< 1 nM
C[C@@H]1COC[C@H](C)N1C(=O)c1cc(F)ccc1Oc1cncnc1N1CC2(CCN(C[C@@H]3CC[C@@H](NS(=O)(=O)NCC(F)(F)F)CO3)CC2)C1 [Compound 162, {[(3R,6S)-6-{[2-(5-{2-[(3R,5S)-3,5-Dimethylmorpholine-4-carbonyl]-4-fluorophenoxy}pyrimidin-4-yl)-2,7-diazaspiro[3.5]nonan-7-yl]methyl}oxan-3-yl]sulfamoyl}(2,2,2-trifluoroethyl)amine]	–	< 1 nM
C[C@@H]1COC[C@H](C)N1C(=O)c1cc(F)ccc1Oc1cncnc1N1CC2(CCN(C[C@@H]3CC[C@@H](NS(=O)(=O)NC4CC4)CO3)CC2)C1 [Compound 163, N-[(3R,6S)-6-{[2-(5-{2-[(3R,5S)-3,5-Dimethylmorpholine-4-carbonyl]-4-fluorophenoxy}pyrimidin-4-yl)-2,7-diazaspiro[3.5]nonan-7-yl]methyl}oxan-3-yl](cyclopropylamino)sulfonamide]	–	< 1 nM
CC(C)N(C(=O)c1cc(F)ccc1Oc1cncnc1N1CC2(CCN(C[C@@H]3CC[C@@H](NS(C)(=O)=O)CO3)CC2)C1)[C@@H]1CCOC1 [Compound 166, 5-Fluoro-N-isopropyl-2-((4-(7-(((2S,5R)-5-(methylsulfonamido)tetrahydro-2H-pyran-2-yl)methyl)-2,7-diazaspiro[3.5]nonan-2-yl)pyrimidin-5-yl)oxy)-N-((R)-tetrahydrofuran-3-yl)benzamide]	–	< 1 nM
CC(C)N(C(=O)c1cc(F)ccc1Oc1cncnc1N1CC2(CCN(C[C@@H]3CC[C@@H](NS(=O)(=O)N4CCC4)CO3)CC2)C1)[C@@H]1CCOC1 [Compound 168, 2-((4-(7-(((2S,5R)-5-(Azetidine-1-sulfonamido)tetrahydro-2H-pyran-2-yl)methyl)-2,7-diazaspiro[3.5]nonan-2-yl)pyrimidin-5-yl)oxy)-5-fluoro-N-isopropyl-N-((R)-tetrahydrofuran-3-yl)benzamide]	–	< 1 nM
CC(C)N(C(=O)c1cc(F)ccc1Oc1cncnc1N1CC2(CCN(C[C@@H]3CC[C@@H](NS(=O)(=O)N4CCCC4)CO3)CC2)C1)[C@@H]1CCOC1 [Compound 169, 5-Fluoro-N-isopropyl-2-((4-(7-(((2S,5R)-5-(pyrrolidine-1-sulfonamido)tetrahydro-2H-pyran-2-yl)methyl)-2,7-diazaspiro[3.5]nonan-2-yl)pyrimidin-5-yl)oxy)-N-((R)-tetrahydrofuran-3-yl)benzamide]	–	< 1 nM
CCN(C)S(=O)(=O)N[C@@H]1CC[C@@H](CN2CCC3(CC2)CN(c2ncncc2Oc2ccc(F)cc2C(=O)N(C(C)C)[C@@H]2CCOC2)C3)OC1 [Compound 170, 2-((4-(7-(((2S,5R)-5-((N-Ethyl-N-methylsulfamoyl)amino)tetrahydro-2H-pyran-2-yl)methyl)-2,7-diazaspiro[3.5]nonan-2-yl)pyrimidin-5-yl)oxy)-5-fluoro-N-isopropyl-N-((R)-tetrahydrofuran-3-yl)benzamide]	–	< 1 nM
CC(C)N(C(=O)c1cc(F)ccc1Oc1cncnc1N1CC2(CCN(C[C@@H]3CC[C@@H](NS(=O)(=O)NCC(F)(F)F)CO3)CC2)C1)[C@@H]1CCOC1 [Compound 171, 5-Fluoro-N-isopropyl-N-((R)-tetrahydrofuran-3-yl)-2-((4-(7-(((2S,5R)-5-((N-(2,2,2-trifluoroethyl)sulfamoyl)amino)tetrahydro-2H-pyran-2-yl)methyl)-2,7-diazaspiro[3.5]nonan-2-yl)pyrimidin-5-yl)oxy)benzamide]	–	< 1 nM
CCNS(=O)(=O)N[C@@H]1CC[C@@H](CN2CCC3(CC2)CN(c2ncncc2Oc2ccc(F)cc2C(=O)N(C(C)C)[C@@H]2CCOC2)C3)OC1 [Compound 172, 2-((4-(7-(((2S,5R)-5-((N-ethylsulfamoyl)amino)tetrahydro-2H-pyran-2-yl)methyl)-2,7-diazaspiro[3.5]nonan-2-yl)pyrimidin-5-yl)oxy)-5-fluoro-N-isopropyl-N-((R)-tetrahydrofuran-3-yl)benzamide]	–	< 1 nM
CC(C)N(C(=O)c1cc(F)ccc1Oc1cncnc1N1CC2(CCN(C[C@@H]3CC[C@@H](NS(C)(=O)=O)CO3)CC2)C1)[C@H]1CCOC1 [Compound 173, 5-Fluoro-N-isopropyl-2-((4-(7-(((2S,5R)-5-(methylsulfonamido)tetrahydro-2H-pyran-2-yl)methyl)-2,7-diazaspiro[3.5]nonan-2-yl)pyrimidin-5-yl)oxy)-N-((S)-tetrahydrofuran-3-yl)benzamide]	–	< 1 nM
